Structures are written as SMILES. Values after ≈ are worked out from the molar mass of the structure shown. Where two headings read alike, the source gives them in different places.

Test [1] has as its system L. reuteri DSM 17938. The test can be described thus: MIC on MRS plates containing lincomycin or clindamycin. The class given is cell-based, Lactobacillus reuteri. The settings on record: strain DSM 17938, anaerobic, 37° C. The method, then:
(§1) The bacteria were grown in MRS broth for 16 h at 37° C. […] After adsorption of the drops, the plates were incubated in anaerobic atmosphere at 37° C. for 24 h. The MIC was defined as the lowest antibiotic concentration for which there was no visible bacterial growth.

Another test has as its system L. reuteri DSM 20016. The test is described as above. The class given is cell-based, Lactobacillus reuteri. Particulars: Limosilactobacillus reuteri, DSM20016, strain DSM 20016 (negative control), anaerobic, 37° C., 24 h. As to the method: as §1
For test [2], the system named is L. reuteri ATCC 55730. The test is described as above. The class given is cell-based, Lactobacillus reuteri. Particulars: Limosilactobacillus reuteri, ATCC55730, strain ATCC 55730, anaerobic, 37° C., 24 h. The method, then: as §1
In test [3] the test system is L. reuteri DSM 17686. Described as above. The class given is cell-based, Lactobacillus reuteri. The settings on record: 37° C., 24 h. As to the method:
as §1

The subject of a further test is 1063. Described as above. The class given is cell-based. The settings on record: strain 1063, anaerobic, 37° C., 24 h. The method, then:
as §1

Test [4] has as its system L. reuteri DSM 17938. The test can be described thus: MIC to tetracycline with Etest. The class given is cell-based, Lactobacillus reuteri. Particulars: strain DSM 17938; MRS agar. The method, then: (§2) The bacteria were grown in MRS broth for 16 h at 37° C. After dilution to 10^5 cfu ml^−1, 1 μl of each bacterial strain was spotted on MRS plates containing lincomycin or clindamycin (concentrations 0, 0.125, 0.25, 0.5, 1, 2, 4, 8 and 16 μg ml^−1). After adsorption of the drops, the plates were incubated in anaerobic atmosphere at 37° C. for 24 h. The MIC was defined as the lowest antibiotic concentration for which there was no visible bacterial growth. MICs to tetracycline were tested with Etest (AB Biodisk) on bacteria growing on MRS agar (Oxoid) plates according to the instructions from the manufacturer.

Test [5] deals with L. reuteri ATCC 55730. Nature of the test: MIC to tetracycline with Etest. It is filed as cell-based, Lactobacillus reuteri. Particulars: Limosilactobacillus reuteri, ATCC55730; strain ATCC 55730; MRS agar; read-out: MIC to tetracycline (E-test). As to the method:
as §2

In test [6] the test system is L. reuteri DSM 17686. Nature of the test: MIC to tetracycline with Etest. It is filed as cell-based, Lactobacillus reuteri. Particulars: strain DSM 17686; MRS agar. As to the method: as §2
[7] abbreviates: Limosilactobacillus reuteri, DSM17938, 24 h, read-out: MIC.
[8] abbreviates: Limosilactobacillus reuteri, DSM17686, strain DSM 17686, anaerobic, read-out: MIC.

As a reminder, the MIC is the least concentration at which growth counts as inhibited. For the compound `CCC[C@@H]1C[C@@H](C(=O)N[C@@H]([C@H]2O[C@H](SC)[C@H](O)[C@@H](O)[C@H]2O)[C@H](C)Cl)N(C)C1` [clindamycin], the MIC with L. reuteri DSM 17938 [1] (setting [7]) is under 0.125 µg/mL; in the test on L. reuteri DSM 20016 it was under 0.125 µg/mL; in the test with L. reuteri ATCC 55730 [2], under 0.125 µg/mL; with L. reuteri DSM 17686 [3] (setting [8]), under 0.125 µg/mL; with 1063, over 16 µg/mL.

Regarding `CCC[C@@H]1C[C@@H](C(=O)N[C@@H]([C@H]2O[C@H](SC)[C@H](O)[C@@H](O)[C@H]2O)[C@@H](C)O)N(C)C1` [lincomycin], the MIC was 0.25 µg/mL (≈ 0.615 µM) in the test with L. reuteri DSM 17938 [1] (setting [7]); 0.5 µg/mL (≈ 1.23 µM) with L. reuteri DSM 17938 [1] (24 h); 0.25 µg/mL (≈ 0.615 µM) in the test with L. reuteri DSM 20016; over 16 µg/mL with L. reuteri ATCC 55730 [2]; over 16 µg/mL in the test with L. reuteri DSM 17686 [3] (setting [8]); over 16 µg/mL against L. reuteri DSM 17686 [3] (strain DSM 17686, anaerobic). The compound also gave an MIC against 1063 of over 16 µg/mL.

As for `CN(C)[C@@H]1C(O)=C(C(N)=O)C(=O)[C@@]2(O)C(O)=C3C(=O)c4c(O)cccc4[C@@](C)(O)[C@H]3C[C@@H]12` [tetracycline], the “MIC to tetracycline (E-test)” value against L. reuteri DSM 17938 [4] and in the test with L. reuteri DSM 17686 [6] was 12-16 μml-1 each time. For the same compound, the MIC in the test with L. reuteri ATCC 55730 [5] is over 256 µg/mL.
